# “And” between values parts separate entries of the source, which are not always exact repeats. Identical values can stand only once. Like-named read-outs stand apart in the source and are kept apart here. Starred links: 1 amine or outer side, 2 acyl side, 3 side chain; linkers in the order of their positions; H or OH if unused. Positions of bridges follow the written chain, without caps; N, C: chain ends. Non-standard residues stand in square brackets, D forms with d. Residues, ends and D or L forms follow the SMILES beside them. Chains are numbered I, II in the order given. Actinocin(9to1) = Cc1c2oc3c(C)ccc(C(=O)[*:1])c3nc-2c(C(=O)[*:2])c(N)c1=O; NMeV = CN[C@H](C(=O)O)C(C)C; Sar = CNCC(=O)O
# Legend:
# [1] = system: Medial smooth muscle cells (SMC) from rat aorta; test: Inhibition of SMC proliferation (thymidine incorporation); format: cell-based; conditions: read-out: IC50 (concentration at which 50% of the cells stop proliferating)
# Experimental: Medial smooth muscle cells (SMC) were isolated from rat aorta and cultured according to explant methods known to one of ordinary skill in the art. Cells were harvested via trypsinization and subcultivated. Cells were identified as vascular SMC through their characteristic hill-and-valley growth pattern as well as indirect immunofluorescence with monoclonal anti SMC α-actin. Studies were performed with cells at passage 3-4. SMC monlayers were established on 24 well culture dishes, scrape wounded and treated with actinomycin D, mytomycin and docetaxel. The cells were exposed to the drug solution of different concentrations for 2 hours and then washed with buffered saline solution. The proliferation of the cells was quantified by standard technique of thymidine incorporation.
# The IC50 (concentration at which 50% of the cells stop proliferating) of actinomycin D was 10^−9M as compared to 5×10^−5M for mitomycin and 10^−6M for docetaxel.
# [2] = system: neointimal formation in the coronary arteries; test: Porcine coronary stent injury model, drug delivered with microporous balloon catheter; format: in vivo, Domestic swine
# Experimental: Porcine coronary models were used to assess the degree of the inhibition of neointimal formation in the coronary arteries of a porcine stent injury model by Actinomycin D, delivered with a microporous balloon catheter (1×10^6 pores/cm^2 with size ranging from 0.2-0.8 micron).
# The preclinical animal testing was performed in accordance with the NIH Guide for Care and Use of Laboratory Animals. Domestic swine were utilized to evaluate effect of the drug on the inhibition of the neointimal formation. Each testing procedure, excluding the angiographic analysis at the follow-up endpoints, was conducted using sterile techniques. During the study procedure, the activated clotting time (ACT) was monitored regularly to ensure appropriate anticoagulation. Base line blood samples were collected for each animal before initiation of the procedure. Quantitative coronary angiographic analysis (QCA) and intravascular ultrasound (IVUS) analysis was used for vessel size assessment.
# The vessels at the sites of the delivery were denuded by inflation of the PTCA balloons to 1:1 balloon to artery ratio and moving the balloons back and forth 5 times. Actinomycin D was delivered to the denuded sites at 3.5 atm (3.61 kg/sq. cm) for 2 minutes using the microporous balloon catheters before stent deployment. The average volume of delivery was about 3.3+/−1.2 ml. Following drug delivery, stents were deployed at the delivery site such that final stent to artery ratio was 1.1:1.
# QCA and IVUS analyses were used for stent deployment guidance. Pre-stenting IVUS measurements of the lumen size at the targeted vessel sites were performed for determination of the balloon (size) inflation pressure. Quantitative analysis of the stented coronary arteries to compare pre-stenting, post-stenting, follow-up minimal luminal diameters, stent recoil, and balloon/stent to artery ratio were performed. Following stent implantation and final angiogram, all devices were withdrawn and the wounds closed; the animals were allowed to recover from anesthesia as managed by the attending veterinarian or animal care professionals at the research center.
# Upon return to the research laboratory at the 28-day endpoint, angiographic assessments were performed. Coronary artery blood flow was assessed and the stented vessels were evaluated to determine minimal lumen diameter. The animals were euthanized following this procedure at the endpoint. Following euthanasia, the hearts were pressure perfusion fixed with formalin and prepared for histological analysis, encompassing light microscopy, and morphometry. Morphometric analysis of the stented arteries included assessment of the position of the stent struts and determination of vessel/lumen areas, percent (%) stenosis, injury scores, intimal and medial areas and intima/media ratios. Percent stenosis is quantitated by the following equation: 100(IEL area−lumen area)/IEL area where IEL is the internal elastic lamia.
# The control group of animals received delivery of water instead of the drug. The test group of animals received actinomycin D in two different concentration of 10^−5M and 10^−4M. […] FIGS. 2A and 2B illustrate sample pictures of the histology slides of the coronary vessels from the control and the Dose 1 group, respectively.
# [3] = system: porcine coronary arteries (EEL/IEL area); test: Positive remodeling by stents coated with EVAL impregnated with actinomycin D in porcine coronary arteries; format: in vivo
# Excerpt: “Positive remodeling” is generally defined as the ability of the vessel walls to structurally adapt, by increasing in lumen size, to chronic stimuli. A positively remodeled lumen wall has a greater diameter or size as compared to a lumen wall which has not been subjected to the remodeling effect. Accordingly, the flow of blood through the remodeled site is increased—flow which would have otherwise been reduced because of, for example, the presence of plaque build-up or migration and proliferation of cells. The index of remodeling is defined by the ratio of the area circumscribed by the external elastic lamia (EEL) of the lesion site to the area circumscribed by the EEL of a reference site. As a result of the positive remodeling of the EEL, the internal elastic lamina (IEL), in response, can also increases in area or diameter.
# In vivo data is provided illustrated positive remodeling caused by the application of actinomycin D. Stents coated with EVAL impregnated with actinomycin D and a control group of stents coated with EVAL free from actinomycin D were implanted in porcine coronary arteries. The animals were sacrificed at the end of 28 days. […] The index of remodeling was 1.076 (8.54/7.94).
# FIGS. 3A and 3B illustrate sample pictures of the histology slides of the coronary vessels from the control group 64 RCA ([…]) and the actinomycin D loaded stent group 68 LAD (Left Anterior Descending), respectively. The stent used was an Advanced Cardiovascular Systems Multi-Link Duet™ (stainless steel). As is illustrated by FIG. 3B, the positive remodeling of IEL 10, caused by the application of actinomycin D, creates a gap between stent struts 12 and IEL 10. Thrombus deposites, illustrated by reference number 14, are formed in the gap over time. The use of a self-expandable stent eliminates the formation of the gap as the stent self-expands in response to the positive remodeling of IEL. Thrombus deposits can be, accordingly, eliminated.
# [4] = rat aortic SMC, scrape wounded, 2 hours drug exposure, thymidine incorporation
# [5] = Dose 1, 1E−05 M, n = 30, 28-day endpoint
# [6] = Dose 2, 1E−04 M, n = 21, 28-day endpoint
# [7] = average of 24 vessel sections, 28 days
# [8] = one value per vessel section (ID # in the cell to the left), 28 days
SMILES,"IC50 [1, 4] [nM]","IC50 ([1]; Rattus norvegicus, 2 h) [nM]","Percent Diameter Stenosis, angiographic data (QCA) ([2]; Dose 1, 1E−05 M, n = 10, 28-day endpoint)","Percent Stenosis (IEL area-lumen area)/IEL area, histomorphometric data [2, 5]","Residual Lumen (Lumen area)/IEL area, histomorphometric data [2, 5]","Percent Diameter Stenosis, angiographic data (QCA) ([2]; Dose 2, 1E−04 M, n = 7, 28-day endpoint)","Percent Stenosis (IEL area-lumen area)/IEL area, histomorphometric data [2, 6]","Residual Lumen (Lumen area)/IEL area, histomorphometric data [2, 6]","EEL area compared with control vessels ([3]; 28 days, actinomycin D-loaded vessels vs control vessels)",AVG % EEL growth ([3]; ActD vs EVAL) [%],AVG % IEL growth ([3]; ActD vs EVAL) [%],"index of remodeling ([3]; EEL area ratio 8.54/7.94, actinomycin D-loaded vs EVAL control)","EEL Area, AVG [3, 7] [mm^2]","IEL Area, AVG [3, 7] [mm2]","EEL Area, individual vessel section [3, 8]","IEL Area, individual vessel section [3, 8]"
CC(=O)O[C@@]12CO[C@@H]1C[C@H](O)[C@@]1(C)C(=O)[C@H](O)C3=C(C)[C@@H](OC(=O)[C@H](O)[C@@H](NC(=O)OC(C)(C)C)c4ccccc4)C[C@@](O)([C@@H](OC(=O)c4ccccc4)[C@H]21)C3(C)C [docetaxel],1000,,,,,,,,,,,,,,,
"Cc1c2oc3c(C)ccc(C(=O)N[C@@H]4C(=O)N[C@H](C(C)C)C(=O)N5CCC[C@H]5C(=O)N(C)CC(=O)N(C)[C@@H](C(C)C)C(=O)O[C@@H]4C)c3nc-2c(C(=O)N[C@@H]2C(=O)N[C@H](C(C)C)C(=O)N3CCC[C@H]3C(=O)N(C)CC(=O)N(C)[C@@H](C(C)C)C(=O)O[C@@H]2C)c(N)c1=O [actinomycin D] (I: T[dV]P[Sar][NMeV] / II: T[dV]P[Sar][NMeV]; ester I:1-I:C, II:1-II:C; linker I:N-II:N via Actinocin(9to1))",,1,36.8 +/− 9.7%,51.8 +/− 13.8%,0.49 +/− 0.14,32.3+/−11.7%,54.1 +/− 11.7%,0.46 +/− 0.08,statistically significantly greater,7.486,13.18,1.076,8.5425,7.4727,7.4498 mm^2 and 8.2509 mm^2 and 7.7342 mm^2 and 7.9207 mm^2 and 6.9926 mm^2 and 8.3883 mm^2 and 7.8546 mm^2 and 9.2545 mm^2 and 9.2515 mm^2 and 8.7854 mm^2 and 9.5164 mm^2 and 9.1504 mm^2 and 9.6679 mm^2 and 9.1237 mm^2 and 9.9849 mm^2 and 9.4765 mm^2 and 7.4424 mm^2 and 9.1462 mm^2 and 8.9504 mm^2 and 8.9117 mm^2 and 8.7533 mm^2 and 7.3249 mm^2 and 7.1061 mm^2 and 8.5830 mm^2,6.3785 mm2 and 7.5206 mm2 and 6.9992 mm2 and 6.9632 mm2 and 6.0418 mm2 and 7.4794 mm2 and 6.2324 mm2 and 8.3785 mm2 and 8.5819 mm2 and 8.0964 mm2 and 8.6879 mm2 and 8.0914 mm2 and 8.7181 mm2 and 8.0273 mm2 and 8.5222 mm2 and 8.3796 mm2 and 6.4219 mm2 and 7.7757 mm2 and 7.5392 mm2 and 7.6573 mm2 and 6.9749 mm2 and 6.2815 mm2 and 5.9760 mm2 and 7.6195 mm2
CO[C@@]12[C@H](COC(N)=O)C3=C(C(=O)C(C)=C(N)C3=O)N1C[C@@H]1N[C@@H]12 [mitomycin],50000,,,,,,,,,,,,,,,

# Source: US7651695B2, “Medicated stents for the treatment of vascular disease” (Advanced Cardiovascular Systems, Inc., priority 2001, dated 2010)
